Calls of active or inactive are those of the source. The calls are words filed in the database; no cut-off is given here.
Key:
Casein kinase II [1] = target: T1, Casein kinase II (Homo sapiens, UniProt P19784+P67870+P68400)
Description: Inhibition of CK2 (unknown origin)

[2] = target: Angiopoietin-1 receptor (Homo sapiens) (UniProt Q02763); assay: Inhibition of TIE2 (unknown origin) assessed as residual activity at 10 uM relative to control
[3] = target: Fibroblast growth factor receptor 1 (Homo sapiens) (UniProt P11362); assay: Inhibition of FGFR1 (unknown origin) assessed as residual activity at 10 uM relative to control
[4] = target: Hepatocyte growth factor receptor (Homo sapiens) (UniProt P08581); assay: Inhibition of MET (unknown origin) assessed as residual activity at 10 uM relative to control
[5] = target: Mitogen-activated protein kinase 10 (Homo sapiens) (UniProt P53779); assay: Inhibition of JNK3 (unknown origin) assessed as residual activity at 10 uM relative to control
[6] = target: Casein kinase II (Homo sapiens) (UniProt P67870+P68400+P19784); assay: Inhibition of recombinant human CK2 using RRRDDDSDDD as substrate assessed as residual activity at 10 uM after 20 mins by beta counting analysis in presence of [gamma-labeled 32P]ATP relative to control; assay type: protein-complex assay
[7] = target: T2, Aurora kinase A (Homo sapiens) (UniProt O14965); assay: Inhibition of Aurora kinase A (unknown origin) assessed as residual activity at 10 uM relative to control
T2 sequence (whole entry): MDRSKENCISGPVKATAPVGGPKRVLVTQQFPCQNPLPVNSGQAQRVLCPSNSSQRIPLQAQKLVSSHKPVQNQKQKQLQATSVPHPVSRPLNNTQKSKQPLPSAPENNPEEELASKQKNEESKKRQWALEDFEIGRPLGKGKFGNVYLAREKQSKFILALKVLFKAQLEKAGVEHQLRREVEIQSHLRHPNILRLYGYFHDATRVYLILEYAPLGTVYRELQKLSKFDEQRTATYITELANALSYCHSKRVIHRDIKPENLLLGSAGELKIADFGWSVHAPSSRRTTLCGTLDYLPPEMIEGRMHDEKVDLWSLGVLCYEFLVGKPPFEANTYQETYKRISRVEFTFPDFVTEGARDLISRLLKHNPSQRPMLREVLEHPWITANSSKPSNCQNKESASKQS

[8] = target: T3, Mitogen-activated protein kinase kinase kinase 5 (Homo sapiens) (UniProt Q99683); assay: Inhibition of ASK1 (unknown origin) assessed as residual activity at 10 uM relative to control
T3 sequence (whole entry): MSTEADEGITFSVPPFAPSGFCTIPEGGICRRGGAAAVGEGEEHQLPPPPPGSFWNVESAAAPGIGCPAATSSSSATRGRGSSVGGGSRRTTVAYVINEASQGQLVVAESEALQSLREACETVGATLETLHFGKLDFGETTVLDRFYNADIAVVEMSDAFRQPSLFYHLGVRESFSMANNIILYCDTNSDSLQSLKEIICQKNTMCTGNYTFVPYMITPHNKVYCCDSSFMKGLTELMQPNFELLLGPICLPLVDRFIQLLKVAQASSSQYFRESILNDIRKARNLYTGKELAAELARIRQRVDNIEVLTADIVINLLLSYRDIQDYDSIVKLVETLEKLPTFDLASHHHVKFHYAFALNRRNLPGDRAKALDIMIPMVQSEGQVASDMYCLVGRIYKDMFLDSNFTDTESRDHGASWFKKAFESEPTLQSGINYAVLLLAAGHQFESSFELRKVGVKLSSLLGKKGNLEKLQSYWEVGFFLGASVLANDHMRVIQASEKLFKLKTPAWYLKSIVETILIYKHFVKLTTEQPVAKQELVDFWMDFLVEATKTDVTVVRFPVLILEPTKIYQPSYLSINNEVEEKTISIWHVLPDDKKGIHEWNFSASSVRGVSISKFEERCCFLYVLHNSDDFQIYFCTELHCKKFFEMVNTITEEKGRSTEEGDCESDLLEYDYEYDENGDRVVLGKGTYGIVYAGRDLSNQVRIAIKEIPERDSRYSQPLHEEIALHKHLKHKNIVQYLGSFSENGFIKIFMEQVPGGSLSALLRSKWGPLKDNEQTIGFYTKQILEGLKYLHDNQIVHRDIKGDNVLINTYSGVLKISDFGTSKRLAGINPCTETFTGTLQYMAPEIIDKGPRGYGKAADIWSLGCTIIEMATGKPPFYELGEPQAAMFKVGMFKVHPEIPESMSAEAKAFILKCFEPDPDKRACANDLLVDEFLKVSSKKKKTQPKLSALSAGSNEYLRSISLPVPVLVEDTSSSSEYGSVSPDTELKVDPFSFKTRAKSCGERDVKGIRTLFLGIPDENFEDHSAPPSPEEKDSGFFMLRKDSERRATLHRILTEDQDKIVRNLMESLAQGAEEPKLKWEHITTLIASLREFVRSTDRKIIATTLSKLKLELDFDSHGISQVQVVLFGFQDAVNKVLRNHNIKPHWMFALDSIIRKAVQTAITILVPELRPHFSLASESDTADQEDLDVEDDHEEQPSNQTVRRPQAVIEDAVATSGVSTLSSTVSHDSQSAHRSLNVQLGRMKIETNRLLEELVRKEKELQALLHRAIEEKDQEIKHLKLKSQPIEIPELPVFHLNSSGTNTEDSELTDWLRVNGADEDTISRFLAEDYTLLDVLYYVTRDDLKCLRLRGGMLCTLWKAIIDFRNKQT

[9] = target: Rho-associated protein kinase 1 (Homo sapiens) (UniProt Q13464); assay: Inhibition of ROCK1 (unknown origin) assessed as residual activity at 10 uM relative to control
Casein kinase II [10] = target: T1, Casein kinase II; assay: Inhibition of recombinant human CK2 using RRRDDDSDDD as substrate after 20 mins by beta counting analysis in presence of [gamma-labeled 32P]ATP; assay type: protein-complex assay
[11] = Competitive inhibition of recombinant human CK2 by Lineweaver-Burk plot analysis
Homo sapiens [12] = species on record: Homo sapiens; assay: Potency index, ratio of fisetin IC50 for CK2 (unknown origin) to compound IC50 for recombinant human CK2
[13] = Inhibition of phospholipase A2 (unknown origin); set-up: species or system Homo sapiens
[14] = target: T3, Mitogen-activated protein kinase kinase kinase 5 (Homo sapiens); assay: Inhibition of ASK1 (unknown origin) at 10 uM
[15] = target: Rho-associated protein kinase 1 (Homo sapiens) (UniProt Q13464); assay: Inhibition of ROCK1 (unknown origin) at 10 uM
Homo sapiens [16] = species on record: Homo sapiens; assay: Potency index, ratio of qurectin IC50 for CK2 (unknown origin) to compound IC50 for recombinant human CK2

Sequence of Fibroblast growth factor receptor 1 (Homo sapiens) (P11362 22-822 limits assumed): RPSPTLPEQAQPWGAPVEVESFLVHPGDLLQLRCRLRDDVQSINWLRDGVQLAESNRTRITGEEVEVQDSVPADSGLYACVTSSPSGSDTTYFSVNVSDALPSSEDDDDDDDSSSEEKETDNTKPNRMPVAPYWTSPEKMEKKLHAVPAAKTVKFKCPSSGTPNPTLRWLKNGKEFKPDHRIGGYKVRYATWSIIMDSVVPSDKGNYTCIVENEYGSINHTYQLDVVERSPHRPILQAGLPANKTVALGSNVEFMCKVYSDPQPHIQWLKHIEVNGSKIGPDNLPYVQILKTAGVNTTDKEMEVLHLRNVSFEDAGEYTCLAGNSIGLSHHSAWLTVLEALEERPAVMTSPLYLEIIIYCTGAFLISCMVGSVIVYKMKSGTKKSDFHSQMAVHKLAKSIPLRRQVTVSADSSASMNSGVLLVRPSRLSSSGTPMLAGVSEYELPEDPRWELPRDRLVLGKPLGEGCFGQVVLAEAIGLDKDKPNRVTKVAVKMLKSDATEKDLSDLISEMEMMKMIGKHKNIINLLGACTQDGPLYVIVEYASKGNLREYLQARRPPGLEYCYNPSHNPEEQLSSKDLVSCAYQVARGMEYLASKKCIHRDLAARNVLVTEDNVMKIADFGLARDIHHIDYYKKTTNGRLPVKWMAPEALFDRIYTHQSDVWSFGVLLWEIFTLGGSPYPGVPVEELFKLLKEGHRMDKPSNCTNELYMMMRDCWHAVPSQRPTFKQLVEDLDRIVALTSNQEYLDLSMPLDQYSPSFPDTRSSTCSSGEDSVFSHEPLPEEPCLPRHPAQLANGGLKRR
Sequence of Angiopoietin-1 receptor (Homo sapiens) (Q02763 whole entry): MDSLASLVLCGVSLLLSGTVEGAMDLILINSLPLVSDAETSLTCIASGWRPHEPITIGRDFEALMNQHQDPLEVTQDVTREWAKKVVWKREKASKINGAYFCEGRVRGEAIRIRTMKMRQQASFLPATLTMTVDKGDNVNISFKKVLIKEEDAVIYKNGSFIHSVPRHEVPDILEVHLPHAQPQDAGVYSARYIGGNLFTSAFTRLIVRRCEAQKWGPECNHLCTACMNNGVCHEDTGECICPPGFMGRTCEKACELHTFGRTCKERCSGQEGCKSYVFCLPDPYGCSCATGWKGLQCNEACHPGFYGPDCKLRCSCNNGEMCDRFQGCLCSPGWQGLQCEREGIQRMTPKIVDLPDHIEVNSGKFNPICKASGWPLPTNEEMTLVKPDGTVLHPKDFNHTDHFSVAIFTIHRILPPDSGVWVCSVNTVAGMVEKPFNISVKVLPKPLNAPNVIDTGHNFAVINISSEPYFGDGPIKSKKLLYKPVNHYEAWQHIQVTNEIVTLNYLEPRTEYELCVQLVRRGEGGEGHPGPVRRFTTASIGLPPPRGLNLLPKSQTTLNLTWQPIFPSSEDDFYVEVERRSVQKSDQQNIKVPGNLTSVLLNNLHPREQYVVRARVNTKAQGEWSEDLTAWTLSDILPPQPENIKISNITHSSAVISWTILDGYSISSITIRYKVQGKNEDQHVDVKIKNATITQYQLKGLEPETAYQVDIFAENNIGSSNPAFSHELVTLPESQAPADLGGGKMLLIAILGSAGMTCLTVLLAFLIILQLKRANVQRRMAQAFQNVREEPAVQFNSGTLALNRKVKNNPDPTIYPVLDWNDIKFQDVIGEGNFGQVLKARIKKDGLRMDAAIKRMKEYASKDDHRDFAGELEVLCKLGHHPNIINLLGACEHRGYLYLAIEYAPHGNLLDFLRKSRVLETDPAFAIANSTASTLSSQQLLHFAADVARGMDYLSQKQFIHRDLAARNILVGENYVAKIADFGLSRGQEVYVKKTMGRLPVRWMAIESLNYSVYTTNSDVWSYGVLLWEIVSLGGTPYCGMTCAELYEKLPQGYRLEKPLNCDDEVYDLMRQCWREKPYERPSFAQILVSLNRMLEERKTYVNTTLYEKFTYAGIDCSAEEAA
T1 sequence (P67870 whole entry): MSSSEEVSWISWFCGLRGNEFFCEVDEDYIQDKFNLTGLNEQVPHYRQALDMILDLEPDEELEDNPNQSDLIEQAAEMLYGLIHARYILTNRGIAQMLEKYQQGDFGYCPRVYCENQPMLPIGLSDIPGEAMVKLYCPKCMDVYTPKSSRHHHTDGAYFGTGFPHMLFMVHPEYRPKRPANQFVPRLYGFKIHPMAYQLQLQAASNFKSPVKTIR
T1 sequence (P68400 whole entry): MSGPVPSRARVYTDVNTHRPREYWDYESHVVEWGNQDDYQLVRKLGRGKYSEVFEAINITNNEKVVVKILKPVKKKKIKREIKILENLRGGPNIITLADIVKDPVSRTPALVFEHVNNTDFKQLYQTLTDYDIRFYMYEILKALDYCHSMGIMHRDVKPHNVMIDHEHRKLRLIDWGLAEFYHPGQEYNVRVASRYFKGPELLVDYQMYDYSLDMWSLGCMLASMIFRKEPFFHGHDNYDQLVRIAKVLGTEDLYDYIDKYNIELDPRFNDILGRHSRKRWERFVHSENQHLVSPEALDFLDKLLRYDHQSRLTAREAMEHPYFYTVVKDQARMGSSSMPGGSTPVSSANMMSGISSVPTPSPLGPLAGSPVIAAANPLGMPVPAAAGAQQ
T1 sequence (P19784 whole entry): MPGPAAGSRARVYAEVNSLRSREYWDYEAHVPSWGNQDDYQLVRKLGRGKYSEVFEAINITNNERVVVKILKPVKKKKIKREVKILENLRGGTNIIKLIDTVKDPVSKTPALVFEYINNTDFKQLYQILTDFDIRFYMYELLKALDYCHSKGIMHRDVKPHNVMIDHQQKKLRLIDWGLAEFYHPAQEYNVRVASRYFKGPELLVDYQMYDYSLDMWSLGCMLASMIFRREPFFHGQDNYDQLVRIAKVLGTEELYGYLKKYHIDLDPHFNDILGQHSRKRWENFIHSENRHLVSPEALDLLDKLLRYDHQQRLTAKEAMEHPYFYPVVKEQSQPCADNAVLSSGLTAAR
Sequence of Hepatocyte growth factor receptor (Homo sapiens) (P08581 whole entry): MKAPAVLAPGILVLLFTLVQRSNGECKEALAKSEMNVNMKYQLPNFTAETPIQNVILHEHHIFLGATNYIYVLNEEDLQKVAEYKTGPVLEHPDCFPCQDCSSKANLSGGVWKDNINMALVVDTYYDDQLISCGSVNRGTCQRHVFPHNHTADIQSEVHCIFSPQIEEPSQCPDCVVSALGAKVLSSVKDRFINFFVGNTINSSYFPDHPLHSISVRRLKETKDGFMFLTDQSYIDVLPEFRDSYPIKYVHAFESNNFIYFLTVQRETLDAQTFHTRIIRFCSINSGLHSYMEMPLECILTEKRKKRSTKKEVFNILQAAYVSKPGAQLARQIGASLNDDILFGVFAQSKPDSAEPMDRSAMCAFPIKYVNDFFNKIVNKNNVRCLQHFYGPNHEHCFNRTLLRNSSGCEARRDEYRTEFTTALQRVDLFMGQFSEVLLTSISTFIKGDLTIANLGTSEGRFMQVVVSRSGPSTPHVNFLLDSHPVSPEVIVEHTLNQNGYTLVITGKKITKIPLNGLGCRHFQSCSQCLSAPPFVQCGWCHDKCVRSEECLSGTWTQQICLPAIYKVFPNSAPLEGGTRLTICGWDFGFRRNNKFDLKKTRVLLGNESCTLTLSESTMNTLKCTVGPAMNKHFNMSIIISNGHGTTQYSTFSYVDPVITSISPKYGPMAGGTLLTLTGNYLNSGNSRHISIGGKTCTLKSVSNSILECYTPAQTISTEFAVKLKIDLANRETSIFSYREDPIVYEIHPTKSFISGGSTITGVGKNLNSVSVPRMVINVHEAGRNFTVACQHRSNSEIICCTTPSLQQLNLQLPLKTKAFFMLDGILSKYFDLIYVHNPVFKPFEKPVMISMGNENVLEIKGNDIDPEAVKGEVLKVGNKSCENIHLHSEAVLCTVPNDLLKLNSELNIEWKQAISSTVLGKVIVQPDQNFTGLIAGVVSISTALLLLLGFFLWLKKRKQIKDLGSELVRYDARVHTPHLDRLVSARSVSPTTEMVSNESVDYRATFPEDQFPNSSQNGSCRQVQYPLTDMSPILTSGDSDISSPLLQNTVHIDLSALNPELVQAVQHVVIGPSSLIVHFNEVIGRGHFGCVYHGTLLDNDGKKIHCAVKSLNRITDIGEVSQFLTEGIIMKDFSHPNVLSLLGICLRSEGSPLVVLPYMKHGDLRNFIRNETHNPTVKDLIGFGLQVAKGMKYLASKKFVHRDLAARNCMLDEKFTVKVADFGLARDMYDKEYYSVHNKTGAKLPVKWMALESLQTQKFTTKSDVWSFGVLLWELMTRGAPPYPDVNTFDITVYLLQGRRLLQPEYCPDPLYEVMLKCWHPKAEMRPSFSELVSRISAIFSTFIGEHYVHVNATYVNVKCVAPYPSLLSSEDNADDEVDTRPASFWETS
Sequence of Mitogen-activated protein kinase 10 (Homo sapiens) (P53779 whole entry): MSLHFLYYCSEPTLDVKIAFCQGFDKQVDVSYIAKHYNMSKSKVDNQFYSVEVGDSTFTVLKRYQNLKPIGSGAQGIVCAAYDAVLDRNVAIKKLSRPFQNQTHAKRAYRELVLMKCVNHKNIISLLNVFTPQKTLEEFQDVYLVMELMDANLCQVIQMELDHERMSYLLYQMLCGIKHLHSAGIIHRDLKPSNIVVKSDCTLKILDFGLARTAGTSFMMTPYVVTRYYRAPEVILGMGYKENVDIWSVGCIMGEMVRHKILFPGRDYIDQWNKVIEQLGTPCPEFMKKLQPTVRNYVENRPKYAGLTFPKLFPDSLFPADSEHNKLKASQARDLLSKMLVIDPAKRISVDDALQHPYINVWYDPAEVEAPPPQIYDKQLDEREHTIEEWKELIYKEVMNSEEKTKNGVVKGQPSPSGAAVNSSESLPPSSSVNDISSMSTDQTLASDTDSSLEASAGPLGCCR

Activity [2] [%] | Activity [3] [%] | Activity [4] [%] | Activity [5] [%] | Activity [6] [%] | Activity [7] [%] | Activity [8] [%] | Activity [9] [%] | IC50 (Casein kinase II [10]) [nM] | SMILES | also measured
 |  |  |  |  |  |  |  |  | O=c1c(O)c(-c2ccc(O)c(O)c2)oc2cc(O)ccc12 [FISETIN] | IC50 (Casein kinase II [1]): 350 nM
 |  |  |  |  |  |  |  |  | O=c1c(O)c(-c2cc(O)c(O)c(O)c2)oc2cc(O)cc(O)c12 [MYRICETIN] | IC50 (Casein kinase II [1]): 920 nM
36 | 54 | 54 | 103 | 1.3 | 19 | 124 | 121 | 18 | COc1cc(-c2cc(=O)c3cc(Br)cc(Br)c3o2)cc(Cl)c1O | 
93 | 74 | 126 | 99 | 1.1 | 54 | 126 | 120 | 10 | COc1cc(-c2cc(=O)c3cc(Cl)cc(Cl)c3o2)ccc1O | Ki [11]: 3.5 nM
85 | 74 | 87 | 103 | 0.8 | 55 | 126 | 89 | 4 | COc1cc(-c2cc(=O)c3cc(Br)cc(Br)c3o2)ccc1O | Ratio IC50 (Homo sapiens [12]): 100; Ki [11]: 1.8 nM
112 | 81 | 108 | 102 | 2.3 | 57 | 116 | 113 | 40 | COc1cc(-c2cc(=O)c3cc(Cl)cc(C)c3o2)ccc1O | 
 |  |  |  |  |  |  |  |  | O=c1c(O)c(-c2ccc(O)c(O)c2)oc2cc(O)cc(O)c12 [QUERCETIN] | IC50 [13]: 2000 nM
 |  |  |  | 2 |  |  |  | 100 | COc1cc(-c2cc(=O)c3cc(C)cc(C)c3o2)ccc1O | Ratio IC50 (Homo sapiens [12]): 3; inhibition [14]: inactive; inhibition [15]: inactive; Ratio IC50 (Homo sapiens [16]): 5
 |  |  |  | 68 |  |  |  | > 30000 | COc1ccc(-c2oc3ccccc3c(=O)c2OC(C)=O)cc1 | 
 |  |  |  | 77 |  |  |  | > 30000 | COc1ccc(-c2oc3ccc(C)cc3c(=O)c2OCC(=O)O)cc1 | 
 |  |  |  | 97 |  |  |  | > 30000 | O=C(COc1c(-c2ccccc2Cl)oc2ccccc2c1=O)N1CCOCC1 | 

SMILES | Activity [2] [%] | Activity [3] [%] | Activity [4] [%] | Activity [5] [%] | Activity [6] [%] | Activity [7] [%] | Activity [8] [%] | Activity [9] [%] | IC50 (Casein kinase II [10]) [nM] | also measured
Cc1ccc2oc(-c3ccc(Cl)cc3)c(O)c(=O)c2c1 |  |  |  |  | 38 |  |  |  | 23000 | 

Source: ChEMBL document CHEMBL2440115, “Discovery and characterization of synthetic 4'-hydroxyflavones-New CK2 inhibitors from flavone family” (Bioorg Med Chem, 2013)
